According to article PMC3293629 (Nature Communications, 2012):
Like-named read-outs stand apart in the source and are kept apart here.

Key:
[1] = system: Flu1-specific clone HA1.7; test: IFN-γ ELISpot, other Flu1-specific clones; type: cell-based, human; conditions: Fig. 1c, peptide titration, compared with Flu1
[2] = system: TRB clonotypes of tetramer-sorted CD4^+ T cells; type: cell-based, human
[3] = system: HA1.7, F11 and HA-C6 TCRs; test: SPR equilibrium binding of HA1.7, F11 and HA-C6 TCRs, combined; set-up: species or system human; conditions: Arg at P10 or P11
[4] = system: CD4^+ T cells binding the HLA-DR1/HA305−320 tetramer; type: cell-based, human
[5] = system: CD4^+ HLA-DR1/HA305−320 tetramer-positive cells; type: cell-based, human

Sequence | responsiveness to altered peptides, other clones (in words) [1] | Freq. of clonotype ([2]; TRBV 5–6, CDR3 […], TRBJ 1–2) [%] | Freq. of clonotype ([2]; TRBV 12–3/4, CDR3 […], TRBJ 1–5) [%] | clonotypic composition, repeat experiment versus first (in words) ([2]; same donor, Chi square 0.72, P=0.70, data not shown) | increase in TCR binding affinity [3] [fold] | tetramer-positive expansion, % of CD3^+ T cells ([4]; short-term T-cell line primed with peptide, HLA-DR1/HA305−320 tetramer) | number of expanded CD4^+ HLA-DR1/HA305−320 tetramer-positive cells [5] | clonotypic composition, repeat experiment versus first (in words) [2] | tetramer-positive expansion, % of CD3^+ T cells [4]
PKYVKQNTLKLAR [Flu3] | striking increase in responsiveness | 69.70 | 30.30 | no significant difference | > 2 | 28.7 % of CD3^+ T cells | – | – | –
PKYVKQNTLKLAT [Flu1, reference compound] | – | – | – | – | – | – | ≥ 5×10^4 cells | no significant difference | 19.4 % of CD3^+ T cells
